Assay results as given in patent US11365217B2, “Peptides for treating telomere dysfunction-associated diseases and uses thereof” (priority 2018, dated 2022).
Entries after “also recorded” stand apart in the source; their conditions may differ. Non-standard residues stand in square brackets, D forms with d. No end group written: not given here.

Legend:
[1] = tested on: Human cervical carcinoma cells Hela; test: Telomere DNA damage in Hela cells under X-ray irradiation, detected by FISH; format: cell-based; details: peptide 4 h; for telomere DNA damage caused by irradiation of X rays: 5-Gy X ray for 1 h
Experimental: Human cervical carcinoma cells Hela were respectively treated with various peptides (as shown in SEQ ID NOs:1-26 in Table 1) for 4 h, and then the cells treated with the same peptide were divided into two groups, which were respectively subjected to 0-Gy and 5-Gy irradiation of X ray for 1 h and detected for telomere DNA damage using fluorescence in situ hybridization (FISH).

[2] = tested on: carbon tetrachloride-induced liver fibrosis in C57BL/6 mice; test: DST8 in carbon tetrachloride-induced liver fibrosis in mice; format: in vivo; details: 1 mg/kg intraperitoneal weekly, 4 weeks, Masson staining and Western Blot, control GE8
Experimental: 12 6 week old wild female C57BL/6 mice were equally divided into four groups, where two groups of mice were intraperitoneally injected with a solution of 10% carbon tetrachloride in olive oil three times a week (on every Monday, Wednesday and Friday, 5 μL per gram of body weight), and the other two groups of mice were intraperitoneally injected with an equal amount of olive oil as control. The two groups injected with carbon tetrachloride were intraperitoneally injected with DST8 (SerArgAsnGlyThrGluGluThr, in D-amino acids), 1 mg per kilogram of body weight) and GE8 (SEQ ID NO:24), respectively, 4 hours before the first injection of carbon tetrachloride in each week. The two control groups were also intraperitoneally injected with DST8 (1 mg per kilogram of body weight) and GE8, respectively, 4 hours before the first injection of olive oil in each week. After 4 consecutive weeks of administration, the liver was isolated, embedded with paraffin, sectioned and subjected to Masson staining and Western Blot analysis.

[3] = tested on: mice with overexpression of FBW7 in lung tissues; test: ST8 in mice intratracheally perfused with FBW7-lentivirus (overexpression of FBW7 in lung); format: in vivo; details: control GE8
Experimental: 4 hours later, the two groups of mice perfused with ST8 were respectively intratracheally perfused with a control- or FBW7-lentivirus, and the two groups of mice perfused with GE8 were also respectively intratracheally perfused with the control- or FBW7-lentiviruses. The perfusion was performed every other 4 days in a total number of 4. On the fourth day after the fourth perfusion, the mice were subjected to endotracheal intubation for the detection of respiratory function. The type II cells were sorted by flow cytometry and calculated for the proportion. The lung tissue RNA was extracted and subjected to real-time quantitative PCR for the detection of mRNA expression of α-SMA, Col6a, and MMP3, and the lung proteins were also extracted and detected by Western Blot for the expression of FBW7, TPP1, SPC, α-SMA and internal reference GAPDH. The lung tissues were embedded with paraffin, sectioned, subjected to Masson and H&E staining and detected by immunofluorescence assay for the expression of α-SMA. Moreover, the proportion of lung type II epithelial cells (SPC positive cells) was obtained by immunofluorescence assay; and the telomere length of type II cells (SPC+telomere probe) was detected by FISH.

[4] = tested on: bleomycin-induced pulmonary fibrosis in mice; test: ST8 in bleomycin-induced pulmonary fibrosis in mice (intratracheal perfusion); format: in vivo
Experimental: 4 hours later, the mice were all intratracheally perfused with bleomycin (3 mg per kilogram of body weight), and 21 days after the perfusion of peptide, the mice were subjected to endotracheal intubation for the detection of respiratory function. The type II cells were sorted by flow cytometry and calculated for the proportion. The lung tissue RNA was extracted and subjected to real-time quantitative PCR for the detection of mRNA expression of NG2, […], s100a4, α-SMA and Col6a, and the lung proteins were also extracted and detected by Western Blot for the expression of FBW7, TPP1, α-SMA and internal reference GAPDH. The lung tissues were embedded with paraffin, sectioned, subjected to Masson and H&E staining and detected by immunofluorescence assay for the expression of α-SMA. Moreover, 10 mg of lung tissues were employed for the determination of hydroxyproline content; and the telomere length of type II cells (SPC+telomere probe) was detected by FISH.

[5] = tested on: mice under X-ray irradiation; test: DYK21 applied to dorsal skin of mice with or without X-ray irradiation (skin aging, weight loss, premature death)
Text: 48 2-4 month old wild mice were equally divided into four groups, and the hair in a 2 cm×2 cm region on the back of each of the mice was removed. […] The mice were photographed and weighed every day, and sacrificed on the 8th day to collect the skin tissues.

[6] = tested on: bleomycin-induced pulmonary fibrosis in mice; test: YK21 in bleomycin-induced pulmonary fibrosis in mice (intratracheal perfusion); format: in vivo
Experimental: The time program of this experiment was shown in FIG. 1E, specifically, 4 hours later, the mice were all intratracheally perfused with bleomycin (3 mg per kilogram of body weight), and 20 hours after the perfusion of bleomycin, two groups of mice were respectively received a second perfusion of YK21 and a second perfusion of YK21h. After 21 days of the first perfusion of peptide, the mice were all subjected to endotracheal intubation for the detection of respiratory function, and the lung tissue RNA was extracted and subjected to real-time quantitative PCR to detect the mRNA expression of TPP1 and SPC. The lung tissues were embedded with paraffin, sectioned, subjected to Masson and H&E staining and detected by immunofluorescence assay for the expression of α-SMA. Moreover, 10 mg of lung tissues were employed for the determination of hydroxyproline content; and the telomere length of alveolar epithelial type II stem cells (SPC+telomere probe) and the telomere DNA damage in lung tissues (53BP1+telomere probe) were detected by FISH.

[7] = dorsal skin application 7 days, 4-Gy X-ray daily, compared to DCTL1
[8] = lung tissue mRNA, real-time quantitative PCR, bleomycin mice, vs YK21h

Substance: KTEETGNRSGRRRQRRKKRGY [DKY21]
- telomere DNA damage caused by irradiation of X rays [1]: inhibitory effect

Substance: SRNGTEET [DST8]
- liver fibrosis caused by carbon tetrachloride [2]: prevent the liver fibrosis; also recorded: significantly inhibit

Substance: SRNGTEET [ST8]
- telomere DNA damage caused by irradiation of X rays [1]: significantly inhibiting
- respiratory dysfunction caused by the overexpression of FBW7 ([3]; 1 mg/kg intratracheal, FBW7-lentivirus perfused 4 times): significant role in alleviating
- decrease in the proportion of type II epithelial cells caused by the overexpression of FBW7 ([3]; FBW7-lentivirus mice): significant role in alleviating
- pulmonary fibrosis caused by the overexpression of FBW7 ([3]; FBW7-lentivirus mice): significant role in alleviating
- reduction in the expression of TPP1 caused by the overexpression of FBW7 ([3]; FBW7-lentivirus mice): significant role in alleviating
- telomere shortening caused by the overexpression of FBW7 ([3]; FISH, FBW7-lentivirus mice): significant role in alleviating
- respiratory dysfunction in mice caused by bleomycin ([4]; 1 mg/kg intratracheal, bleomycin 3 mg/kg, day 21, control GE8): alleviate
- telomere length of type II cells ([4]; FISH, bleomycin mice, control GE8): extend the telomere
- bleomycin-induced pulmonary fibrosis in mice ([4]; Masson, H&E, α-SMA, fibrosis marker mRNA, control GE8): inhibitory effect
- FBW7 expression in lung ([4]; Western Blot, bleomycin mice, control GE8): inhibit FBW7
- proportion of lung type II epithelial cells ([4]; flow cytometry, bleomycin mice, control GE8): improved

Substance: TyrGlyArgLysLysArgArgGluArgArgArgGlySerArgAsnGlyThrGluGluThrLys [DYK21] ([dY]G[dR][dK][dK][dR][dR][dE][dR][dR][dR]G[dS][dR][dN]G[dT][dE][dE][dT][dK])
- telomere DNA damage caused by irradiation of X rays [1]: inhibitory effect
- skin damage and fibrous tissue proliferation (skin fibrosis) caused by X-ray irradiation ([5]; H&E and Masson staining, 4-Gy X-ray daily for 7 days, vs DCTL1): completely free of skin fibrosis; also recorded: significant inhibitory effect
- number of dermal stem cells ([5]; application to the dorsal skin of mice): significant increase
- number of hair follicles ([5]; application to the dorsal skin of mice, irradiation not mentioned): significant increase
- acute death caused by X-ray irradiation ([5]; compared to DCTL1): alleviated the acute death to some extent
- life span under X-ray irradiation ([5]; compared to DCTL1): prolonged the life of some mice
- weight loss caused by X-ray irradiation ([5]; compared to DCTL1): inhibited the weight loss
- body weight [5, 7]: larger in body weight
- number of hair follicles [5, 7]: more hair follicles
- fibrosis area ([5]; skin, X-ray irradiation, vs DCTL1): smaller fibrosis area

Substance: YGRKKRRERRRGSRNGTEETK
- telomere DNA damage at a basic level ([1]; 0-Gy): significantly reduce
- telomere DNA damage caused by irradiation of X rays [1]: completely inhibit
- respiratory function in mice ([6]; 1 mg/kg intratracheal, bleomycin 3 mg/kg, day 21, compared to control peptide YK21h): improve the lung respiratory function; also recorded: significantly improve
- pulmonary fibrosis induced by bleomycin ([6]; 1 mg/kg intratracheal, bleomycin 3 mg/kg, day 21, hydroxyproline, Masson, H&E, α-SMA, vs YK21h): prevent the lung aging damage and pulmonary fibrosis; also recorded: inhibit
- telomere length of type II epithelial cells ([6]; FISH (SPC+telomere probe), bleomycin mice, vs YK21h): extend telomere length; also recorded: increase
- number of lung stem cells ([6]; intratracheal administration to mice in one time): increase the number of lung stem cells
- expression of SPC [6, 8]: increase
- expression of TPP1 [6, 8]: increase
